Data published in patent US20210085630A1, “PHARMACEUTICAL COMPOSITION AND USE THEREOF IN PREPARING DRUG FOR TREATING TUMOR MULTI-DRUG RESISTANCE” (SICHUAN JIUZHANG BIOLOGICAL SCIENCE AND TECHNOLOGY CO., LTD., priority 2018, published 2021).

Legend:
[1] = test system: CD4+T and CD8+T lymphocytes; assay: Number of CD4+T and CD8+T cells (immunofluorescence), drug-resistant B16 melanoma transplanted tumor; type: in vivo; settings: transplanted tumor of drug-resistant B16 melanoma in mice, average of 6 high power fields
Protocol: (§1) The number of CD4+T and CD8+T lymphocytes was analyzed by immunofluorescence staining, and the average number of CD4+T and CD8+T cells infiltrated in 6 high power fields was counted.

[2] = test system: drug-resistant A549 lung cancer cell lines; assay: Reversal of gemcitabine resistance in drug-resistant A549 cells (MTT); type: cell-based, human; settings: test drug 30 μg/ml; for Reversal index: IC50 before reversal/IC50 after reversal, drug-resistant A549
Protocol: The culture and experimental methods of cells were the same as above. In the experiment, there are following groups: drug-resistant cell negative group, drug-resistant cells+test drug group 1 (30 μg/ml), drug-resistant cells+test drug group 2 (30 μg/ml), drug-resistant cells+test drug group 3 (30 μg/ml), drug-resistant cells+test drug group 4 (30 μg/ml), drug-resistant cells+test drug group 5 (30 μg/ml), drug-resistant cells+test drug group 6 (30 μg/ml). Each test drug group was respectively added with different concentrations of gemcitabine, each concentration including 3 replicate wells, and the OD value of each well was measured, to observe whether the cytotoxicity was shown. Each test drug and gemcitabine were respectively used to act on drug resistant cells, so as to compare with the effects of gemcitabine administrated alone on drug-resistant cells, and the IC50 value of gemcitabine against drug-resistant cell lines was calculated, as well as the IC50 value of each test drug after reversing drug-resistant cell lines. Reversal index=IC50 value before reversal/IC50 value after reversal.

PD-1/PD-L1 = PD-1/PD-L1 expression rate in tumor tissues of Opdivo-resistant Lewis lung cancer mice; type: in vivo; settings: tumor tissues of drug-resistant (Opdivo) Lewis lung cancer mice
From the text: The positive expression rate of PD-1/PD-L1 in tumor tissues was detected by immunohistochemical SP method.

[3] = test system: CD4+T and CD8+T lymphocytes; assay: Number of CD4+T and CD8+T lymphocytes in transplanted tumor of multidrug-resistant Lewis lung cancer mice; type: in vivo; settings: average of 6 high power fields
Protocol: as §1

[4] = test system: drug-resistant A375 melanoma cell lines; assay: Reversal of dacarbazine resistance in drug-resistant A375 cells (MTT); type: cell-based, human; settings: test drug 30 μg/ml; for Reversal index: IC50 before reversal/IC50 after reversal, drug-resistant A375
Protocol: The culture and experimental methods of cells were the same as above.
In the experiment, there are following groups: drug-resistant cell negative group, drug-resistant cells+test drug group 1 (30 μg/ml), drug-resistant cells+test drug group 2 (30 μg/ml), drug-resistant cells+test drug group 3 ([…]), drug-resistant cells+test drug group 4 (30 μg/ml), drug-resistant cells+test drug group 5 (30 μg/ml), drug-resistant cells+test drug group 6 (30 μg/ml).
Each test drug group was added with different concentrations of dacarbazine, each concentration including 3 replicate wells, and the OD value of each well was measured, to observe whether the cytotoxicity was shown. Each test drug and dacarbazine were respectively used to act on drug resistant cells, so as to compare with the effects of dacarbazine administrated alone on drug-resistant cells, and the IC50 value of dacarbazine against drug-resistant cell lines was calculated, as well as the IC50 value of each test drug after reversing drug-resistant cell lines.
Reversal index=IC50 value before reversal/IC50 value after reversal.

Q: What does the source list for `O=C(/C=C/c1ccc(O)cc1)O[C@@H]1C[C@](O)(C(=O)O)C[C@@H](O)[C@H]1O` [Coumaroylquinic acid, coumaroylquinic acid]?
A: CD4 + T cells (number) [1]: 62.83 ± 7.51; CD8 + T cells (number) [1]: 91.53 ± 3.54; Reversal index [2]: 1.10; reversal effect on the drug-resistant A549 cell lines (in words) [2]: no significant reversal effect; Expression rate of PD-1/PD-L1, Positive PD-L1 (PD-1/PD-L1): 71.89%; CD4 + T cells (number) [3]: 79.11 ± 5.36; CD8 + T cells (number) [3]: 122.08 ± 14.36; Reversal index [4]: 1.06; reversal effect on the drug-resistant A375 cell lines (in words) [4]: no significant reversal effect

Q: Which “CD4 + T cells (number)” value [1] does the source give for `O=C(/C=C/c1ccc(O)c(O)c1)O[C@@H]1C[C@](O)(C(=O)O)C[C@@H](O)[C@H]1O` [Chlorogenic acid, chlorogenic acid] here?
A: 69.43 ± 4.72

Q: And the “CD8 + T cells (number)” value [1]?
A: 88.62 ± 5.38

Q: And the Reversal index [2]?
A: 1.13

Q: And the “reversal effect on the drug-resistant A549 cell lines (in words)” value [2]?
A: no significant reversal effect

Q: And the “Expression rate of PD-1/PD-L1, Positive PD-L1” value (PD-1/PD-L1)?
A: 70.36%

Q: And the “CD4 + T cells (number)” value [3]?
A: 79.24 ± 4.06

Q: And the “CD8 + T cells (number)” value [3]?
A: 126.52 ± 11.85

Q: What about the Reversal index [4] of the same compound?
A: 1.17

Q: And the “reversal effect on the drug-resistant A375 cell lines (in words)” value [4]?
A: no significant reversal effect
